According to ChEMBL document CHEMBL6127124, “Structure-Activity Relationships and Discovery of (S)-5-(tert-Butyl)-11-(difluoromethoxy)-9-methoxy-2-oxo-1,2,5,6-tetrahydropyrido[2',1':2,3]imidazo[4,5-h]quinoline-3-carboxylic Acid (AB-161), a Novel Orally Available and Liver-Centric HBV RNA Destabilizer” (J Med Chem, 2024):

Legend:
Hepatitis B virus [1] = assay: Antiviral activity against HBV infected in human HepG2.2.15 cells assessed as reduction in HBsAg level incubated for 6 days with media and compound replenishment on third day by CLIA; assay type: functional, organism-based; conditions: HepG2.2.15, 144 h; for EC90: time 6 day
[2] = Cytotoxicity in human HepG2.2.15 cells by Cell Titer-Glo assay; assay type: toxicity, cell-based, HepG2 2.2.15
[3] = Chemical stability of compound in PBS assessed as compound remaining measured after 6 days by HPLC UV analysis; assay type: physicochemical; conditions: buffer, 144 h; time 6 day
[4] = Metabolic stability in human liver microsomes assessed as clearance at 0.3 uM preincubated for 5 mins followed by NADPH addition measured upto 60 mins by LC-MS/MS analysis; assay type: ADME, Microsome; conditions: time < 65 min, read-out: CLH
[5] = Metabolic stability in Sprague-Dawley rat liver microsomes assessed as clearance at 0.3 uM preincubated for 5 mins followed by NADPH addition measured upto 60 mins by LC-MS/MS analysis; assay type: ADME, Microsome; conditions: time < 65 min, read-out: CLH
[6] = Metabolic stability in CD-1 mouse liver microsomes assessed as clearance at 0.3 uM preincubated for 5 mins followed by NADPH addition measured upto 60 mins by LC-MS/MS analysis; assay type: ADME, Microsome; conditions: time < 65 min, read-out: CLH
[7] = AUC (0 to 24 hrs) in CD-1 mouse at 10 mg/kg, po measured for 24 hrs by LC-MS/MS analysis; assay type: ADME, organism-based; conditions: in vivo
[8] = Ratio of total drug concentration in liver to plasma in CD-1 mouse at 10 mg/kg, po measured for 12 hrs by LC-MS/MS analysis; assay type: ADME, organism-based; conditions: liver and plasma
[9] = Selectivity ratio of drug concentration in liver in CD-1 mouse at 10 mg/kg, po measured for 12 hrs to EC90 for antiviral activity against HBV infected in human HepG2.2.15 cells assessed as reduction in HBsAg level; assay type: ADME, organism-based; conditions: in vivo
[10] = Ratio of total drug concentration in liver to plasma in CD-1 mouse at 10 mg/kg, po measured for 24 hrs by LC-MS/MS analysis; assay type: ADME, organism-based; conditions: for Ratio: mouse, in vivo, po, 10 mg/kg, 24 h, BLD = below limit of detection; for Kp at 24 h: CD-1, mouse, liver and plasma
[11] = Selectivity ratio of drug concentration in liver in CD-1 mouse at 10 mg/kg, po measured for 24 hrs to EC90 for antiviral activity against HBV infected in human HepG2.2.15 cells assessed as reduction in HBsAg level; assay type: ADME, organism-based; conditions: in vivo
[12] = AUC (0 to 24 hrs) in CD-1 mouse at 0.2 mg/kg, po measured for 24 hrs by LC-MS/MS analysis; assay type: ADME, organism-based; conditions: in vivo
[13] = Ratio of total drug concentration in liver to plasma in CD-1 mouse at 0.2 mg/kg, po measured for 12 hrs by LC-MS/MS analysis; assay type: ADME, organism-based; conditions: liver and plasma
[14] = Selectivity ratio of drug concentration in liver in CD-1 mouse at 0.2 mg/kg, po measured for 12 hrs to EC90 for antiviral activity against HBV infected in human HepG2.2.15 cells assessed as reduction in HBsAg level; assay type: ADME, organism-based; conditions: in vivo
[15] = Ratio of total drug concentration in liver to plasma in CD-1 mouse at 0.2 mg/kg, po measured for 24 hrs by LC-MS/MS analysis; assay type: ADME, organism-based; conditions: for Ratio: mouse, in vivo, po, 0.2 mg/kg, 24 h, BLD = below limit of detection
[16] = Selectivity ratio of drug concentration in liver in CD-1 mouse at 0.2 mg/kg, po measured for 24 hrs to EC90 for antiviral activity against HBV infected in human HepG2.2.15 cells assessed as reduction in HBsAg level; assay type: ADME, organism-based; conditions: in vivo
[17] = Oral bioavailability in CD-1 mouse at 10 mg/kg measured for 24 hrs by LC-MS/MS analysis; assay type: ADME, organism-based; conditions: in vivo
Hepatitis B virus [18] = assay: Antiviral activity against HBV genotype D in immuno-competent C57BL/6 mouse model of chronic HBV assessed as log10 reduction in HBsAg production at 3 mg/kg, po qd for 7 days measured 24 hrs post-last dose by EIA (reference value: 0.67); assay type: functional; conditions: time 8 day
Hepatitis B virus [19] = assay: Antiviral activity against HBV genotype D in immuno-competent C57BL/6 mouse model of chronic HBV assessed as log10 reduction in HBsAg production at 10 mg/kg, po qd for 7 days measured 24 hrs post-last dose by EIA (reference value: 0.98); assay type: functional; conditions: time 8 day

Structure (SMILES)	EC50 (Hepatitis B virus [1])	EC90 (Hepatitis B virus [1])	CC50 [2]	microsomal CLint at 0.3 µM [4]	microsomal CLint at 0.3 µM [5]	microsomal CLint at 0.3 µM [6]	AUC(0-t) at 24 h [7]	Kp at 12 h [8]	Ratio [9]	Kp at 24 h [10]	Ratio [11]	further results
CC(C)(C)C1Cc2c(cc(OC(F)F)c3ncccc23)-c2[nH]c(=O)c(C(=O)O)c(O)c21 (configuration not stated)	0.3 nM	2.4 nM	48000 nM									Stability [3]: Unstable
Cn1c2c(cc(C(=O)O)c1=O)[C@H](C(C)(C)C)Cc1c-2nc2c(C(F)(F)F)cc(Cl)cn12	0.24 nM	2.5 nM	15000 nM	7 µL/min/mg	2 µL/min/mg	1 µL/min/mg	786 ng·h/mL	43	2002			Ratio [10]: Bld; Ratio ([11]; BLD = below limit of detection): Bld; AUC(0-t) at 24 h [12]: 17 ng·h/mL; Kp at 12 h [13]: 24; Ratio [14]: 22; Ratio [15]: Bld; Ratio ([16]; BLD = below limit of detection): Bld
CC(C)(C)C1Cc2c(nc3c(C(F)(F)F)cc(F)cn23)-c2[nH]c(=O)c(C(=O)O)cc21 (configuration not stated)	4.9 nM	10 nM	> 50000 nM									
CC(C)(C)[C@@H]1Cc2c(nc3c(C(F)(F)F)cccn23)-c2[nH]c(=O)c(C(=O)O)cc21	3.1 nM	46 nM	> 50000 nM	2 µL/min/mg	8 µL/min/mg	15 µL/min/mg	2150 ng·h/mL	72	438	92	3	
CC(C)(C)[C@@H]1Cc2c(nc3c(OC(F)F)cccn23)-c2[nH]c(=O)c(C(=O)O)cc21	3.7 nM	34 nM	> 50000 nM	2 µL/min/mg	33 µL/min/mg	45 µL/min/mg	853 ng·h/mL	133	108		1	Ratio [10]: Bld
CC(C)(C)C1Cc2c(nc3c(C(F)(F)F)cc(Cl)cn23)-c2c1cc(C(=O)O)c(=O)n2C1CC1 (configuration not stated)	2.3 nM	7 nM	16000 nM									
CC(C)(C)[C@@H]1Cc2c(nc3c(C(F)(F)F)cc(Cl)cn23)-c2[nH]c(=O)c(C(=O)O)cc21	2 nM	34 nM	> 50000 nM	3 µL/min/mg		3 µL/min/mg						
COc1cccn2c3c(nc12)-c1[nH]c(=O)c(C(=O)O)cc1[C@H](C(C)(C)C)C3	12 nM	121 nM	> 50000 nM	1 µL/min/mg		16 µL/min/mg		11	3			
COCCCOc1cc2c(nc1OC)-c1[nH]c(=O)c(C(=O)O)c(O)c1[C@H](C(C)(C)C)C2	1.1 nM	13 nM	26000 nM	57 µL/min/mg		12 µL/min/mg	4940 ng·h/mL			1.3	4.6	Stability [3]: Unstable; bioavailability [17]: 93%
CC(C)(C)[C@@H]1Cc2c(nc3c(C(F)F)cccn23)-c2[nH]c(=O)c(C(=O)O)cc21	12 nM	135 nM	> 50000 nM	2 µL/min/mg		11 µL/min/mg						
CC(C)(C)[C@@H]1Cc2c(nc3c(OC(F)F)cc(OC(F)F)cn23)-c2[nH]c(=O)c(C(=O)O)cc21	7.9 nM	7 nM	> 50000 nM									
Cc1cc(C(F)(F)F)c2nc3c(n2c1)CC(C(C)(C)C)c1cc(C(=O)O)c(=O)[nH]c1-3 (configuration not stated)	0.8 nM	11 nM	47000 nM									
COc1ccn2c3c(nc2c1OC(F)F)-c1[nH]c(=O)c(C(=O)O)cc1[C@H](C(C)(C)C)C3	3.5 nM	49 nM	> 50000 nM	4 µL/min/mg	5 µL/min/mg	3 µL/min/mg	2690 ng·h/mL	24	69	19	1	AUC(0-t) at 24 h [12]: 44 ng·h/mL; Kp at 12 h [13]: 22; Ratio [14]: 3; Ratio [15]: Bld; Ratio ([16]; BLD = below limit of detection): Bld
COc1ccn2c3c(nc2c1OC)-c1[nH]c(=O)c(C(=O)O)cc1[C@H](C(C)(C)C)C3	5.6 nM	51 nM	> 50000 nM			1 µL/min/mg	5100 ng·h/mL			5	0.3	
CC(C)(C)[C@@H]1Cc2c(nc3c(OC(F)F)cc(F)cn23)-c2[nH]c(=O)c(C(=O)O)cc21	3.7 nM	54 nM	> 50000 nM	1 µL/min/mg	4 µL/min/mg	3 µL/min/mg	2740 ng·h/mL	105	1080	194	203	AUC(0-t) at 24 h [12]: 67 ng·h/mL; Kp at 12 h [13]: 176; Ratio [14]: 25; Kp at 24 h ([15]; CD-1, mouse, liver and plasma): 101; Ratio [16]: 7; log(activity) (Hepatitis B virus [18]): 0.16; log(activity) (Hepatitis B virus [19]): 0.37
